Results on five substances are retold here after patent publication US20230263822A1, “MODULATION OF FACTOR 11 EXPRESSION” (Ionis Pharmaceuticals, Inc., priority 2008, published 2023).

Strand notation (5' to 3'): a small letter for the sugar, then the base; units joined by * are phosphorothioate-linked, units joined directly phosphodiester-linked; [ ] holds rarer units or linkages, { } end groups; capitals alone tell only the bases. e = 2'-O-(2-methoxyethyl) (MOE); [5mC] = 5-methylcytosine; d = 2'-deoxy (DNA)

Series [1] is described as follows: Tail bleeding assay, combination with PLAVIX (Example 27). The format is in vivo, BALB/c mice. Particulars: ISIS 404071 20 mg/kg, PLAVIX 0. How it is done:
ISIS 404071 was administered subcutaneously at a dosage of 20 mg/kg twice a week for 3 weeks to 5 groups of eight BALB/c mice. After the last dose of ISIS 404071, mice were treated with 0 mg/kg, 6.25 mg/kg, 12.50 mg/kg, 25.00 mg/kg, or 50.00 mg/kg of PLAVIX. Two doses of PLAVIX were administered to the mice on day one and one dose of PLAVIX was administered on day two, two hours before bleeding.
Two hours after receiving their final treatment, mice were placed in a tail bleeding chamber. […] The blood was collected for the course of 40 minutes.

Series [2] in a line: Tail bleeding assay vs warfarin (Example 12). The settings on record: mouse, in vivo; for Blood (tail bleeding, collected over 40 minutes): sc. As for the experimental part:
A separate control group of BALB/c mice was treated with PBS, administered subcutaneously twice a week for 3 weeks.
Mice were anesthetized in the chamber with isoflurane and a small piece of tail (approximately 4 mm from the tip) was cut with sterile scissors. The tail cut was immediately placed in a 15 mL Falcon tube filled with approximately 10 mL of 0.9% NaCl buffer solution warmed to 37° C. The blood was collected over the course of 40 minutes. The saline filled tubes were weighed both before and after bleeding.

The test system of series [3] is IL-1β, IL-6, IFN-γ, TNF-α, IL-8, MIP-1α, MCP-1, MIP-1β, RANTES. In words: Cytokine and chemokine assays in cynomolgus monkeys (Example 45). In kind it is in vivo. The settings on record: escalating dose regimen. As for the experimental part:
Groups, each consisting of two male and three female monkeys, were injected subcutaneously with ISIS 416838, ISIS 416850, ISIS 416858, ISIS 416864, or ISIS 417002 in escalating doses. Antisense oligonucleotide was administered to the monkeys at 5 mg/kg three times per a week for week 1; 5 mg/kg twice per week for weeks 2 and 3; 10 mg/kg three times per week for week 4; 10 mg/kg twice per week for weeks 5 and 6; 25 mg/kg three times per week for week 7; and 25 mg/kg twice per week for weeks 8, 9, 10, 11, and 12. One control group, consisting of two male and three female monkeys, was injected subcutaneously with PBS according to the same dosing regimen. An additional experimental group, consisting of two male and three female monkeys, was injected subcutaneously with ISIS 416850 in a chronic, lower dose regimen. Antisense oligonucleotide was administered to the monkeys at 5 mg/kg three times per week for week 1; 5 mg/kg twice per week for week 2 and 3; 10 mg/kg three times per week for week 4; and 10 mg/kg twice per week for weeks 5 to 12. Body weights were measured weekly. Blood samples were collected 14 days and 5 days before the start of treatment and subsequently once per week for Factor 11 protein activity analysis in plasma, fibrinogen measurement, PT and aPTT measurements, bleeding times, and measurement of various hematologic factors. On day 85, the monkeys were euthanized by exsanguination while under deep anesthesia, and organs harvested for further analysis.
Blood samples obtained from the monkey groups treated with PBS, ISIS 416850 and ISIS 416858 administered in the escalating dose regimen were sent to Pierce Biotechnology (Woburn, Mass.) for measurement of chemokine and cytokine levels. Levels of IL-1β, IL-6, IFN-γ, and TNF-α were measured using the respective primate antibodies and levels of IL-8, MIP-1α, MCP-1, MIP-1β and RANTES were measured using the respective cross-reacting human antibodies. Measurements were taken 14 days before the start of treatment and on day 85, when the monkeys were euthanized.

Series [4] is described as follows: Tolerability in Sprague-Dawley rats: body weight and organ weight (Example 42). The settings on record: 50 mg/kg s.c. twice per week for 6 weeks; for Change in Kidney weight / Change in Liver weight / Change in Spleen weight: end of study; for Change in body weight: percent increase over the PBS control weight.
The nature of series [5]: Tolerability in Sprague-Dawley rats: liver function (Example 42). Particulars: 50 mg/kg s.c. twice per week for 6 weeks, plasma.
Series [6] in a line: Tolerability in Sprague-Dawley rats: hematology assays (Example 42). Particulars: 50 mg/kg s.c. twice per week for 6 weeks, blood.
A short description of series [7]: Tolerability in Sprague-Dawley rats: kidney function (Example 42). Particulars: 50 mg/kg s.c. twice per week for 6 weeks; for BUN / Creatinine: plasma.
The mark [8] stands for this setting: day −14 (before start of treatment).

For “ISIS 404071: antisense oligonucleotide targeted to murine Factor 11 mRNA, TGGTAATCCACTTTCAGAGG, target start site 869 (chemistry not given here)”, the “Blood (tail bleeding, collected for 40 minutes)” value in series [1] was 0 g. The “bleeding in tail bleeding assay” value in series [2] is on record as “did not affect bleeding”. Also, the “Blood (tail bleeding, collected over 40 minutes)” value in series [2] (1.25 mg/kg) was determined as 0.00 g; in series [2] (5 mg/kg), 0.03 g; in series [2] (10 mg/kg), 0.00 g; in series [2] (20 mg/kg), 0.06 g; in series [2] (40 mg/kg), 0.03 g.
In series [3] (day 85), “ISIS 416850: MOE gapmer, nucleobases 1275 to 1318 of SEQ ID NO: 1 (Table 8) (antisense TGCACAGTTTCTGGCAGGCC; MOE gapmer, wing and gap sizes not given here)” returned an IFN-γ level of 18 pg/mL, an IL-1β level of 13 pg/mL, an IL-6 level of 17 pg/mL and an IL-8 level of 172 pg/mL. Also, in series [3] (day 85), the MCP-1 level stood at 2330 pg/mL, the MIP-1α level amounted to 41 pg/mL, the MIP-1β level came to 216 pg/mL and the RANTES level is on record as 83981 pg/mL. Further, the TNF-α level in series [3] (day 85) is listed as 27 pg/mL. In series [3] (setting [8]), the IFN-γ level is 126 pg/mL, the IL-1β level was 3 pg/mL, the IL-6 level was found to be 30 pg/mL and the IL-8 level was found to be 1659 pg/mL. Moreover, in series [3] (setting [8]), the MCP-1 level worked out at 1384 pg/mL, the MIP-1α level was determined as 28 pg/mL, the MIP-1β level stood at 137 pg/mL and the RANTES level is recorded as 75335 pg/mL. In series [3] (setting [8]), this substance came in with a TNF-α level of 14 pg/mL.
In series [3] (day 85), “ISIS 416858: MOE gapmer, nucleobases 1275 to 1318 of SEQ ID NO: 1 (Table 8) (antisense ACGGCATTGGTGCACAGTTT; MOE gapmer, wing and gap sizes not given here)” yielded an IFN-γ level of 18 pg/mL, an IL-1β level of 5 pg/mL, an IL-6 level of 25 pg/mL and an IL-8 level of 303 pg/mL. In series [3] (day 85), this substance displayed an MCP-1 level of 1752 pg/mL, an MIP-1α level of 41 pg/mL, an MIP-1β level of 221 pg/mL and an RANTES level of 125511 pg/mL. Moreover, the TNF-α level in series [3] (day 85) is 45 pg/mL. In series [3] (setting [8]), this substance had an IFN-γ level of 60 pg/mL, an IL-1β level of 5 pg/mL, an IL-6 level of 9 pg/mL and an IL-8 level of 1552 pg/mL. In series [3] (setting [8]), the MCP-1 level is on record as 1252 pg/mL, the MIP-1α level worked out at 36 pg/mL, the MIP-1β level is 122 pg/mL and the RANTES level is listed as 112253 pg/mL. For the same substance, the TNF-α level in series [3] (setting [8]) is reported as 9 pg/mL.
Take “ISIS 445522: 5-8-5 or 6-8-6 MOE microwalk gapmer (Table 44) (antisense eG*e[5mC]*eA*e[5mC]*eA*dG*dT*dT*dT*d[5mC]*dT*dG*dG*e[5mC]*eA*eG*eG*e[5mC])”: in series [4], the “Change in Kidney weight” value is on record as “+19%”, the “Change in Liver weight” value is reported as “+26%”, the “Change in Spleen weight” value is recorded as “+184%” and the “Change in body weight” value is on record as −13%. In series [5], this substance yielded an ALT of 240 IU/L, an AST of 138 IU/L, an Albumin of 3.6 and a Bilirubin of 0.47 mg/dL. Also, in series [6], the HCT was found to be 47%, the Lymphocyte came out at 84%, the Neutrophil turned out to be 13% and the Platelets is 1334 nL⁻¹. In series [6], this substance came in with an RBC of 7.7 pL⁻¹, a WBC of 18 nL⁻¹, a hemoglobin of 13.6 g/dL and a monocytes of 2.8%. In series [7], the BUN came to 25 mg/dL, the Creatinine is listed as 0.4 mg/dL and the Urine protein/creatinine ratio is 6.4.
With “ISIS 445531: 5-8-5 or 6-8-6 MOE microwalk gapmer (Table 44) (antisense eG*eG*e[5mC]*eA*eT*dT*dG*dG*dT*dG*d[5mC]*dA*d[5mC]*eA*eG*eT*eT*eT)”, in series [4], the “Change in Kidney weight” value is recorded as “+4%”, the “Change in Liver weight” value is “+17%”, the “Change in Spleen weight” value is on record as “+89%” and the “Change in body weight” value is on record as −10%. In series [5], the ALT was found to be 272 IU/L, the AST was determined as 137 IU/L, the Albumin is given as 3.7 and the Bilirubin is recorded as 0.12 mg/dL. Also, in series [6], the HCT is 50%, the Lymphocyte was determined as 86%, the Neutrophil came out at 10% and the Platelets amounted to 1023 nL⁻¹. Moreover, in series [6], the RBC is 8.8 pL⁻¹, the WBC came to 13 nL⁻¹, the hemoglobin came out at 14.8 g/dL and the monocytes came to 2.8%. Besides, in series [7], the BUN is 23 mg/dL, the Creatinine was determined as 0.4 mg/dL and the Urine protein/creatinine ratio is given as 3.4.
